Results on two molecules are retold here after patent EP3318253B1, “COMPOSITIONS COMPRISING WNT INHIBITORS FOR TREATING CANCER” (Schmidt-Wolf, Ingo, priority 2010, dated 2012).

Where only a bound is given, the exact number is not on record here.

The subject of data set [1] is PBL. Briefly: Cell viability by DiOC6 staining, flow cytometry (normal control cells). The following applies: Homo sapiens, PBL, 72 h.
Protocol: Peripheral blood mononuclear cells (PBMC) and PBL were isolated from blood samples of healthy volunteers by Ficoll density gradient centrifugation (Lymphoprep, Nycomed, Oslo, Norway).
1x10^5 Cells were cultured in 3 ml Medium in 6-well plates. […] The apoptosis assay was performed with 3'3-dihexyloxacarbocyanine iodide (DiOC6) detecting mitochondrial membrane potential in viable cells, and propidium iodide (PI) which binds to DNA in necrotic cells, measured by a fluorescence-activated cell sorter (FACS).
For FACS analysis, 500µl staining solution containing 80 nM DiOC6 in FACS buffer, consisting of deficient RPMI-medium with 0.5% bovine serum albumin (BSA), was mixed with equal volumes of the cell sample in a glass tube and incubated at 37°C for 15 min. After a washing step with PBS/BSA 1% the cells were re-suspended in 500µl PBS/BSA 1%. After addition of 5µl PI-solution (100µg/ml) the cells were analyzed by FACS. Using this assay, viable cells reveal high fluorescence intensity for DiOC6 and a low expression for PI. In contrary, apoptotic cells show a low expression for DiOC6 and also a low expression for PI (2). Finally, necrotic cells show a low expression for DiOC6 and a high expression for PI.
PBMC and PBL derived from healthy individuals were used as normal controls. 1x10^5 cells were cultured with each compound using various concentrations for three days. Then cell viability was measured by DIOC6 staining by flow cytometry. Results represent data from two to four separate experiments each.
PBMC and PBL derived from healthy individuals were used as normal controls. 1x10^5 cells were cultured with each compound using various concentrations for three days. Then cell viability was measured by DIOC6 staining by flow cytometry. Results represent data from 2 to 4 separate experiments each.
1x10^5 Cells were cultured in 3 ml Medium in 6-well plates. […] The apoptosis assay was performed with 3' 3-dihexyloxacarbocyanine iodide (DiOC6) detecting mitochondrial membrane potential in viable cells, and propidium iodide (PI) which binds to DNA in necrotic cells, measured by a fluorescence-activated cell sorter (FACS).
PBL derived from healthy individuals were used as controls. 1x10^5 cells were cultured with each compound using various concentrations for three days. Then cell viability was measured by DIOC6 staining by flow cytometry and IC 50 rates were determined. Results represent data from 2 to 4 separate experiments each.
PBMC and PBL derived from healthy individuals were used as controls. 1x10^5 cells were cultured with each compound using various concentrations for three days.
Data set [2] relates to β-catenin. Briefly: Western blot, β-catenin expression in KMS-18 cells. The format is cell-based, human. The following applies: KMS-18 cells treated for 24h. The protocol: (§1) Western blot was performed as described recently^16.
(§2) • Figure 1. […] Data are shown as mean ± SD. • Figure 2. […] Data are shown as mean ± SD. • Figure 3. […] (A) Flow cytometric results. […] Finally, ECL reagent was utilized for detection. • Figure 4C. […] Finally, ECL reagent was utilized for detection. • Figure 5. Effect of EA on viability of myeloma primary cells. […] Results represent data from two separate experiments. Data are shown as mean. • Figure 6. […] (A) Tumor growth and (B) overall survival were measured. Six animals were assayed per group.
(§3) Western blot was performed as described recently.
(§4) • Figure 7. […] Data are shown as mean ± SD. • Figure 8. […] Data are shown as mean ± SD. • Figure 9. Effect of CIC on the Wnt/beta catenin pathway. (A) Flow cytometric results. […] Finally, ECL reagent was utilized for detection. • Figure 10C. […] Finally, ECL reagent was utilized for detection. • Figure 11. […] (A) Tumor growth and (B) overall survival were measured. Six animals were assayed per group. HD CIC.

Data set [3] concerns β-catenin. In words: Western blot, β-catenin expression in RPMI 8226 cells. The format is cell-based, human. The following applies: RPMI 8226 cells treated for 24h. How it is done:
as §1, §2, §3, §4

Data set [4] concerns beta catenin. Briefly: Western blot, Wnt/beta catenin pathway in lymphoma cells. The format is cell-based, human. The protocol:
as §1, §2, §3, §4

Data set [5] concerns Wnt/beta catenin. The following applies: Gen-plus drug library, 960 compounds; cited from earlier work.
In data set [6] the test system is primary CLL cells. The settings on record: earlier work of the group; cited from earlier work.
Data set [7] has as its system lymphoma and myeloma cell lines. Briefly: Titration of the optimal concentration. The format is cell-based, human. The settings on record: without significantly deteriorating viability of normal PBMCs, data not shown. From the text: As a first step, we determined the optimal concentration of EA in various lymphoma and myeloma cell lines. Subsequently, we determined the optimal concentration of EA in PBMCs derived from healthy individuals in order to check for toxicity. […] The effect of DMSO as a toxic solvent was only observed in the myeloma cell line OPM-2 (Figure 1C). As a control, peripheral blood mononuclear cells (PBMCs) were investigated by FACS analysis. A toxic effect affecting the cells induced a shift from viable, DiOC6-positive cells to apoptotic, DiOC6-negative cells.
(§5) Experiments were performed as reported recently.
As a first step, we determined the optimal concentration of CIC in various lymphoma and myeloma cell lines. Subsequently, we determined the optimal concentration of CIC in PBMCs derived from healthy individuals in order to check for toxicity. […] The effect of DMSO as a toxic solvent was only observed in the myeloma cell line OPM-2 (Fig. 7C). As a control, peripheral blood mononuclear cells (PBMCs) were investigated by FACS analysis. A toxic effect affecting the cells induced a shift from viable, DiOC6-positive cells to apoptotic, DiOC6-negative cells.

Data set [8] relates to lymphoma cell lines. In words: Cell viability by DiOC6 staining in lymphoma cell lines. The format is cell-based, human. The settings on record: result in words. The protocol: as §5
(§6) PBL derived from healthy individuals were used as controls. […] ND, not done.

The test system of data set [9] is OPM-2 myeloma cells. Briefly: Cell viability by DiOC6 staining, flow cytometry. The class given is cell-based, human. The settings on record: Homo sapiens, 72 h; OPM-2; 1x10^5 cells cultured three days, various concentrations. The protocol:
as §5, §6

The test system of data set [10] is PBMC. Briefly: Cell viability by DiOC6 staining, flow cytometry (normal control cells). The format is cell-based, human. The protocol: PBMCs were isolated from blood of healthy donors by Ficoll-Hypaque density gradient centrifugation. Blood from buffy coats was mixed 1:2 with PBS/1% BSA (both PAA, Cölbe, Germany) and used for a ficoll gradient (LymphoPrep, PAA, Cölbe, Germany). After the centrifugation at 800 g for 30 minutes, the leukocyte layer was removed and transferred to new tubes. Subsequently, these cells were washed 3 times with PBS/1%BSA and re-suspended in fresh medium, consisting of RPMI medium (PAA, Cölbe, Germany) with 10% fetal calf serum (Invitrogen, Karlsruhe, Germany), 2.5% hepes buffer solution (PAA, Cölbe, Germany), and 1% penicillin/streptomycin (PAA, Cölbe, Germany).
as §5

Data set [11] concerns primary myeloma cells derived from bone marrow from patients with multiple myeloma. In words: Viability of myeloma primary cells from bone marrow. The class given is cell-based, human. The settings on record: incubated three days; preliminary data. The protocol: Bone marrow samples from patients with myeloma were taken after informed consent, single cell suspensions generated and cells ficolled. Cells were incubated with or without EA for three days and measured for viability.
as §2
Bone marrow samples from patients with myeloma were taken after informed consent, single cell suspensions generated and cells ficolled. Cells were incubated with or without CIC for three days and measured for viability.
Bone marrow samples from patients with myeloma were taken after informed consent, single cell suspensions generated and cells ficolled. Cells were incubated with or without GF for three days and measured for viability.

For data set [12], the system named is OPM-2, U266 and RPMI 8226 cells. In words: Cell viability by DiOC6 staining in myeloma cell lines (mean IC50, combinations). The class given is cell-based, human. The following applies: Homo sapiens; mean of the IC50 results in OPM-2, U266 and RPMI 8226 cells. The protocol:
A mean IC50 value in myeloma cells was determined using the mean of the IC50 results determined in OPM-2, U266 and RPMI 8226 cells.
as §2
Experiments were performed as reported recently. […]

In the case of `Cc1cc(C2CCCCC2)n(O)c(=O)c1` [CIC, ciclopirox olamine], the IC50 in [1] was 9 µM; in data set [9] it was 5 µM; in [10] (Homo sapiens, PBMC, after 72 h) it was greater than 400 µM; in [10] (PBMC from healthy individuals, three days) it was greater than 400 µM; in data set [12], 30 µM. Also, the β-catenin expression result in data set [2] is “decreased”; in [3], “slightly decreased”. The “beta catenin expression in lymphoma cells” value in [4] was “down regulated”. In addition, the “identified in TOPflash reporter screen” value in data set [5] is reported as “Wnt/beta catenin inhibitors”. Besides, the “cell death in primary CLL cells” value in data set [6] is “selectively induced cell death”. Moreover, in data set [7], the “most effective concentration to initialize cell death” value is on record as 30 µM. For the same molecule, in data set [8], the “viability of lymphoma cell lines in vitro” value is “significantly (p<0.05) decreased”. The “effect on normal PBMC and PBL” value in data set [10] (normal PBMC and PBL, result in words) is on record as “marginal”. The “growth of primary myeloma cells” value in data set [11] is “inhibits the growth”.

As for `C=C(CC)C(=O)c1ccc(OCC(=O)O)c(Cl)c1Cl` [EA, 2-[2,3-dichloro-4-(2-methylidenebutanoyl)phenoxy] acetic acid], the IC50 in [1] is 10 µM; in data set [9], 22 µM; in data set [10] (Homo sapiens, 72 h, PBMC from healthy individuals, three days), greater than 400 µM; in data set [12] it was 30 µM. Also, the β-catenin expression entry in data set [2] is on record as “increased”; in data set [3], “slightly increased”. Also, the “beta catenin expression in lymphoma cells” value in data set [4] is recorded as “down regulated”. Besides, in data set [5], the “identified in TOPflash reporter screen” value is recorded as “Wnt/beta catenin inhibitors”. For the same molecule, the “cell death in primary CLL cells” value in data set [6] is listed as “selectively induced cell death”. For the same molecule, the “most effective concentration to initialize cell death” value in [7] is listed as 30 µM. The “viability of lymphoma cell lines in vitro” value in [8] is “significantly (p<0.05) decreased”. Also, the “growth of primary myeloma cells” value in data set [11] is “inhibits the growth”.
